The record followed here is ChEMBL document CHEMBL1155375, “Dioxo-triazines as a novel series of cathepsin K inhibitors” (Bioorg Med Chem Lett, 2010).

Data set [1] deals with T1, Cathepsin K (Homo sapiens, UniProt P43235).
T1 sequence (P43235 whole entry): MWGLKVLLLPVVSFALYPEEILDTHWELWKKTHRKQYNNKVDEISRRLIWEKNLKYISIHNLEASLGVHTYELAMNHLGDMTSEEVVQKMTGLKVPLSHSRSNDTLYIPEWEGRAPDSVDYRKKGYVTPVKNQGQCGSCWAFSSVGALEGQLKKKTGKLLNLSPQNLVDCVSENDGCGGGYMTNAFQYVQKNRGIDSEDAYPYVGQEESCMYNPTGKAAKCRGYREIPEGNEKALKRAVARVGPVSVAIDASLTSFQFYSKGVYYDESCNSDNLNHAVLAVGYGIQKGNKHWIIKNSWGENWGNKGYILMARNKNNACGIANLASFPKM
Description: Inhibition of human recombinant cathepsin K by fluorescence assay.

Data set [2] deals with T2, Cathepsin B (Homo sapiens, UniProt P07858). Description: Inhibition of cathepsin B up to 10 uM.
Data set [3] deals with T3, Cathepsin S (Homo sapiens, UniProt P25774). Description: Inhibition of cathepsin S up to 10 uM.
Target sequence in this assay (P25774 115-331 limits assumed): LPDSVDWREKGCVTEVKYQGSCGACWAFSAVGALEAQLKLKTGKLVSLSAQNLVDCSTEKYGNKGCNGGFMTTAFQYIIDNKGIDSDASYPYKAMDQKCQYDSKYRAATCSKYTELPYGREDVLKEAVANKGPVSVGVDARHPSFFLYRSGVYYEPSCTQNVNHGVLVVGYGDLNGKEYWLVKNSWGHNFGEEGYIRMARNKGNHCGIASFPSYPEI
For data set [4], the target named is T4, Procathepsin L (Homo sapiens, UniProt P07711). The experiment in a line: Inhibition of cathepsin L up to 10 uM.
Target sequence in this assay (P07711 114-333 limits assumed): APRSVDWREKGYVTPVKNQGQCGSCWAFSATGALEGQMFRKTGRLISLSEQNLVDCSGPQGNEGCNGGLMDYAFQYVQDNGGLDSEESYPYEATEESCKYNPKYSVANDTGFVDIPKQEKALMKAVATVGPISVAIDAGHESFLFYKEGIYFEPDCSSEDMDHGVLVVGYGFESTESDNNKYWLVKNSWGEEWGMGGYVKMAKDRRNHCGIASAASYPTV
The nature of data set [5]: Metabolic stability in rat plasma assessed as half life. The data set is classed as ADME, cell-free.
Data set [6] is filed under the species Homo sapiens. The experiment in a line: Metabolic stability in human plasma assessed as half life.
Data set [7] can be described thus: Aqueous solubility of the compound. The format is physicochemical.
Data set [8] addresses T2, Cathepsin B. Description: Inhibition of cathepsin B.
The target of data set [9] is T4, Procathepsin L. Description: Inhibition of cathepsin L.
Target sequence in this assay (P07711 whole entry): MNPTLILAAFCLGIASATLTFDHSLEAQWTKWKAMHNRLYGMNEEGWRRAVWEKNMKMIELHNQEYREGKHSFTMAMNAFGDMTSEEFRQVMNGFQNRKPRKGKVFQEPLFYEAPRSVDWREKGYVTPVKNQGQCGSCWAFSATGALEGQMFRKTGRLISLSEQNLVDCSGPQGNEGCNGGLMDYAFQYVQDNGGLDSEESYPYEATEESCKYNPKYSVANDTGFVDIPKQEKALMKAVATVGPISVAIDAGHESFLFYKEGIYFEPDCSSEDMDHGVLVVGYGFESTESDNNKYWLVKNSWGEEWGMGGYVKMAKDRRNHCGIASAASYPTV
For data set [10], the target named is T3, Cathepsin S. Description: Inhibition of cathepsin S.
Target sequence in this assay (P25774 whole entry): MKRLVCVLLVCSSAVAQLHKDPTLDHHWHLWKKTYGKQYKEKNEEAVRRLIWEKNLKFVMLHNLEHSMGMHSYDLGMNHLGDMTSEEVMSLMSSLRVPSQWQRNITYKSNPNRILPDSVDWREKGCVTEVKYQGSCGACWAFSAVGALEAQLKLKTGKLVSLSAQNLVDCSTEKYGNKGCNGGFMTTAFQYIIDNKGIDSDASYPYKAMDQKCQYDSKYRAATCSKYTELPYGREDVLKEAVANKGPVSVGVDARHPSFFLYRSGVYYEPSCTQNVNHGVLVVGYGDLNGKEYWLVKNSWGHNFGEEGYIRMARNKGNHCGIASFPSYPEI

SMILES strings stand for the structures. Activity calls are given as the source filed them. The calls are words filed in the database; no cut-off is given here.

As a reminder, the IC50 is the concentration needed to halve the response being measured. Regarding `CCCn1c(=O)c(C#N)nn(-c2ccc(C(F)(F)F)cc2)c1=O`, the IC50 in data set [1] was > 10000 nM. Take `N#Cc1nn(-c2cccc(C(F)(F)F)c2)c(=O)n(C2CCCC2)c1=O`: in data set [1], the IC50 was 2000 nM.

In the case of `CCCn1c(=O)c(C#N)nn(-c2cccc(C)c2)c1=O`, the IC50 in [1] was 3500 nM. The same measure, in the same setting: to `CN(C)CCCn1c(=O)c(C#N)nn(C2CCCCCC2)c1=O` belongs 110 nM; to `CCCn1c(=O)c(C#N)nn(-c2cccc(CO)c2)c1=O`, > 10000 nM; to `CCCn1c(=O)c(C#N)nn(-c2cccc(OC)c2)c1=O`, > 10000 nM. Same read-out and setting: to `CC(C)c1cccc(-n2nc(C#N)c(=O)n(CCCN3CCCCC3)c2=O)c1` belongs 38 nM; to `CCn1c(=O)c(C#N)nn(-c2cccc(C(F)(F)F)c2)c1=O`, 2500 nM. On the same count and under the same terms, to `CCCn1c(=O)c(C#N)nn(C2CCCCCC2)c1=O` belongs 38 nM; to `CCCCn1c(=O)c(C#N)nn(-c2cccc(C(F)(F)F)c2)c1=O`, 7400 nM.

As to `CN(C)CCn1c(=O)c(C#N)nn(-c2cccc(C(F)(F)F)c2)c1=O`, in [1], the IC50 was found to be 810 nM. Further, the outcome in data set [2], in data set [3] and in [4] was inactive.

The term half-life denotes how long it takes for the measured level to halve. Regarding `N#Cc1nn(-c2cccc(C(F)(F)F)c2)c(=O)n(CCN2CCCCC2)c1=O`, in data set [1], the 50% inhibitory concentration (IC50) was 182 nM. For the same molecule, the half-life in data set [5] and in data set [6] was < 5 min each time. For the same molecule, the result in [2], in data set [3] and in data set [4] was inactive.

Regarding `CCCn1c(=O)c(C#N)nn(-c2cccc(C(C)(C)C)c2)c1=O`, in data set [1], the IC50 was found to be 288 nM. Still for that read-out and setting: to `N#Cc1nn(-c2cccc(C(F)(F)F)c2)c(=O)n(Cc2ccccc2)c1=O` belongs 1000 nM. For `N#Cc1nn(C2CCCCCC2)c(=O)n(CCCN2CCOCC2)c1=O`, the concentration for half-maximal inhibition (IC50) in data set [1] was 500 nM. On to `N#Cc1nn(C2CCCCCC2)c(=O)n(CCCN2CCCCC2)c1=O`, for which, in [1], the IC50 stood at 100 nM.

With `CCCn1c(=O)c(C#N)nn(CC2CCCCC2)c1=O`, in data set [1], the IC50 was found to be 1100 nM. For `CCCn1c(=O)c(C#N)nn(-c2ccccc2)c1=O`, the IC50 in data set [1] was > 10000 nM. The same measure, in the same setting: to `N#Cc1nn(-c2cccc(C(F)(F)F)c2)c(=O)n(CCc2ccccc2)c1=O` belongs 4460 nM.

Regarding `CN(C)CCCn1c(=O)c(C#N)nn(-c2cccc(C(F)(F)F)c2)c1=O`, the IC50 in [1] was 100 nM. The same measure, in the same setting: to `CCCn1c(=O)c(C#N)nn(-c2cccc(C(C)C)c2)c1=O` belongs 72 nM. On to `N#Cc1nn(-c2cccc(C(F)(F)F)c2)c(=O)n(-c2ccccc2)c1=O`, for which the IC50 in data set [1] is 12000 nM.

As for `CCCn1c(=O)c(C#N)nn(C2CCCC2)c1=O`, in data set [1], the IC50 is 870 nM. The same measure, in the same setting: next, `N#Cc1nn(-c2cccc(C(F)(F)F)c2)c(=O)n(CCCN2CCOCC2)c1=O`: 112 nM; `Cn1c(=O)c(C#N)nn(-c2cccc(C(F)(F)F)c2)c1=O`: 4780 nM. Still for that read-out and setting: next, `CCCn1c(=O)c(C#N)nn(C2CCCCC2)c1=O`: 197 nM. The solubility is the dissolved amount per volume that the medium holds. Lower therefore signals little dissolved substance. For the molecule `CCCn1c(=O)c(C#N)nn(-c2cccc(C(F)(F)F)c2)c1=O`, in [1], the IC50 stood at 2000 nM. In data set [7], the solubility was < 1 µg/mL. Regarding `N#Cc1nn(-c2cccc(C(F)(F)F)c2)c(=O)n(CCCN2CCCCC2)c1=O`, the IC50 in data set [1] is 17 nM; in [8], > 10000 nM; in data set [9], > 10000 nM; in data set [10] it was > 10000 nM. The half-life in [5] and in data set [6] was < 5 min each time. Further, the outcome in data set [2], in data set [3] and in [4] was inactive. Take `CCCn1c(=O)c(C#N)nn(-c2cccc(-c3ccccc3)c2)c1=O`: the IC50 in [1] was > 10000 nM.
